≈ marks a conversion by molar mass, not a printed value. Where two headings read alike, the source gives them in different places.
Assays:
[1] = test system: 3D7 strain of Plasmodium falciparum; test: In vitro antimalarial activity, 48-h [3H]-hypoxanthine incorporation assay; type: cell-based
Experimental: The 3D7 strain of Plasmodium falciparum was used in this study. This strain is known to be […] Parasites were maintained in continuous culture using the method of Jensen and Trager^4. […] Stock drug solutions were prepared in 100% dimethylsulphoxide (DMSO) and diluted to the appropriate concentration using complete medium. Assays were performed in sterile 96-well microlitre plates, each plate contained 200 μl of parasite culture (2% parasitemia, 0.5% haematocrit) with or without 10 μl drug dilutions. Each drug was tested in triplicate and parasite growth compared to control wells (which constituted 100% parasite growth). […] IC50 values were calculated by interpolation of the probit transformation of the log dose-response curve.

[2] = Timed iron degradation stability, FeBr2 in THF; type: physicochemical; details: ferrous bromide/THF
From the text: The resulting residue was purified by flash column chromatography and the % recovery of starting endoperoxide calculated (Table 15).

[3] = Stability to other iron salts (FeSO4•7H2O, FeCl2•4H2O); type: physicochemical; details: further iron salts
[4] = test system: Plasmodium falciparum DD2; test: In vitro analysis versus strains of Plasmodium falciparum: DD2; type: cell-based; details: DD2 strain, read-out: IC50
Plasmodium falciparum K1 = test: In vitro analysis versus strains of Plasmodium falciparum: K1; type: cell-based; details: K1 strain
[5] = test system: Plasmodium falciparum GC03; test: In vitro analysis versus strains of Plasmodium falciparum: GC03; type: cell-based; details: GC03 strain, read-out: IC50
[6] = test system: Plasmodium falciparum V1S; test: microbe, parasite or virus in culture; type: cell-based
[7] = test system: Plasmodium falciparum HB3; test: In vitro analysis versus strains of Plasmodium falciparum: HB3; type: cell-based; details: HB3 strain, read-out: IC50
[8] = test system: Plasmodium falciparum PH3; test: In vitro analysis versus strains of Plasmodium falciparum: PH3; type: cell-based; details: PH3 strain, read-out: IC50
[9] = test system: Plasmodium falciparum TM4; test: In vitro analysis versus strains of Plasmodium falciparum: TM4; type: cell-based; details: TM4 strain, read-out: IC50
P. berghei ANKA [10] = test: In vivo dose response screening against P. berghei ANKA; set-up: species or system mice; details: Plasmodium berghei; P. berghei ANKA infected mice; Table 9
Experimental: Compound 29c, 29h and 291 were then subjected to dose response experiment against the P. berghei ANKA and the results are summarized in Table 7 below.

[11] = test system: HepG2 Human hepatocyte carcinoma; test: Cellular cytotoxicity screen, Resazurin reduction; type: cell-based; details: Hep2G
From the text: (§1) Values represent Tox 50 in μM. Cytotoxicity measured by Resazurin reduction.
(§2) Single full dose response curves generated using 10 independent drug concentrations. The 100 therapeutic index (TI) is the ration of the TOX 50 to the IC50 for the specific compound against the 3D7 P. falciparum isolate. The primary hepatocytes have demonstrable drug metabolising activity. The tetraoxane derivatives are remarkably non-toxic in these screens with in vitro TIs of between 5000 to 17000!.

[12] = test system: H9c2(2-1) Myocardium, heart; test: Cellular cytotoxicity screen, Resazurin reduction; type: cell-based, rat; details: H9c(2-1)
From the text: as §1, §2

[13] = test system: L6 Sketal muscle myoblast; test: Cellular cytotoxicity screen, Resazurin reduction; type: cell-based, rat
From the text: as §1, §2

[14] = test system: MRC-5 Embryonal lung, diploid; test: Cellular cytotoxicity screen, Resazurin reduction; type: cell-based, Human
From the text: as §1, §2

Vero Kidney = test: Cellular cytotoxicity screen, Resazurin reduction; type: cell-based, African green monkey, Cercopithecus aethiops
From the text: as §1, §2

[15] = test system: Salmonella typhimurium NM2009; test: Salmonella typhimurium SOS/umu genotoxicity assay
From the text: (§3) This assay is based on the ability of DNA damaging agents to induce the expression of the umu operon. The Salmonella strains have a plasmid pSK1002 which carries an umuC-lacZ fused gene that produces a hybrid protein with β-galactosidase activity and whose expression is controlled by the umu regulatory region.

[16] = test system: Salmonella typhimurium TA1535/pSK1002; test: Salmonella typhimurium SOS/umu genotoxicity assay
From the text: as §3

P. berghei ANKA [17] = test: In vivo dose response screening against P. berghei ANKA; details: P. berghei ANKA infected mice; Table 9; sigmoidal curve calculation
[18] = ratio TOX 50 to IC50 against 3D7 P. falciparum

Molecule `O=S(=O)(c1ccccc1)N1CCC2(CC1)OOC1(OO2)C2CC3CC(C2)CC1C3` [Tetraoxane 39f] has an IC50 ([1]; 3D7, sulfonamide dispiro 1,2,4,5-tetraoxanes, Table 8, read-out: Mean IC50) of 8.1 nM, a degradation ([2]; after 4 h) of 10% and a turnover ([2]; after 48 h) of 31%. For the same molecule, the “degradation by iron salts known to degrade artemisinin and arteflene” value [3] was “ineffective at degrading”.

For `CCN(CC)Cc1cc(Nc2ccnc3cc(Cl)ccc23)ccc1O` [AM, Amodiaquine, reference compound], the IC50 [4] was 6.1 nM, the IC50 (Plasmodium falciparum K1) was 10.2 nM and the IC50 [5] was 4.5 nM. For the same molecule, the IC50 [6] was 7.7 nM, the IC50 [7] was 5.9 nM and the IC50 [8] was 4.7 nM. The IC50 [9] was 6.4 nM.

Work on `CCS(=O)(=O)N1CCC2(CC1)OOC1(OO2)C2CC3CC(C2)CC1C3` [Tetraoxane 39b] yielded an IC50 ([1]; 3D7, read-out: Mean IC50) of 5.55 nM, an ED50 (P. berghei ANKA [10]) of 6.61 mg/kg and an IC50 [4] of 3 nM. For the same molecule, the IC50 (Plasmodium falciparum K1) was 3 nM, the IC50 [5] was 3 nM and the IC50 [6] was 2.7 nM. It also gave an IC50 [7] of 3.8 nM, an IC50 [8] of 1.9 nM and an IC50 [9] of 2.4 nM. For the same molecule, the “Tox 50” value [11] was greater than 50 µM, the “Theraputic Index (TI)” value [11, 18] was greater than 9090 and the “Tox 50” value [12] was greater than 50 µM. The “Theraputic Index (TI)” value [12, 18] was greater than 9090, the “Tox 50” value [13] was 31 µM and the “Theraputic Index (TI)” value [13, 18] was 5636. The “Tox 50” value [14] was greater than 50 µM, the “Theraputic Index (TI)” value [14, 18] was greater than 9090 and the “Tox 50” value (Vero Kidney) was greater than 50 µM. The “Theraputic Index (TI)” value (Vero Kidney; [18]) was greater than 9090, the “MCE NM2009 (Maximum Co w/o effects on bacteria growth or beta-galactosidase production)” value ([15]; Salmonella typhimurium) was 50 µM and the “Max. Fold Increase” value ([15]; −S9) was 1.07 ± 0.03 fold. The Potential genotox ([15]; −S9) was “NEG”, the “MCE TA1535 (Maximum Co w/o effects on bacteria growth or β-galactosidase production)” value ([16]; Salmonella typhimurium) was 50 µM and the “genotoxicity result in SOS/umu assay” value ([16]; both strains TA1535/pSK1002 and NM2009, highest concentration tested 50 μM, absence and presence of S-9 mix) was “Negative”. For the same molecule, the “Max. Fold Increase” value ([16]; −S9) was 1.03 ± 0.07 fold, the Potential genotox ([16]; −S9) was “NEG” and the ED90 (P. berghei ANKA [17]) was 35.48 mg/kg. The solubility (physchem) was 50 µM (≈ 18.7 µg/mL).
